The term IC50 denotes the point on the concentration scale where inhibition reaches its midpoint.

This test has as its system A549. The test is described as follows: Cytotoxicity against human A549 cells assessed as cell growth inhibition incubated for 72 hrs by MTS assay. Type of test: functional, cell-based. The following applies: A549, 72 h.

Molecules are shown by their SMILES. Where a SMILES comes first, the peptide text is derived from it. Bridges are numbered along the chain shown (N, C = ends). [ ]: non-standard residue; d: D form. The star is where a group is joined. Bip = N[C@@H](Cc1ccc(-c2ccccc2)cc1)C(=O)O; dNMeaIle = CC[C@H](C)[C@@H](NC)C(=O)O; NMe2Val = CC(C)[C@@H](C(=O)*)N(C)C; NMeLys(Me) = CNCCCC[C@H](NC)C(=O)O; NMeI = CC[C@H](C)[C@H](NC)C(=O)O; NMeT = CN[C@H](C(=O)O)[C@@H](C)O; 2Pal = N[C@@H](Cc1ccccn1)C(=O)O; 3Pal = N[C@@H](Cc1cccnc1)C(=O)O; 4Pal = N[C@@H](Cc1ccncc1)C(=O)O; NMeL = CN[C@@H](CC(C)C)C(=O)O; NMeOrn = CN[C@@H](CCCN)C(=O)O; dNMeOrn = CN[C@H](CCCN)C(=O)O; dHiv = CC(C)[C@@H](O)C(=O)O; NMeS = CN[C@@H](CO)C(=O)O; NMeA = CN[C@@H](C)C(=O)O; dNMeA = CN[C@H](C)C(=O)O

Regarding `CC[C@H](C)[C@H]1C(=O)N[C@@H](C)C(=O)N(C)[C@@H](CC(C)C)C(=O)N[C@@H](Cc2ccc(OC)cc2)C(=O)N(C)CCCC[C@H](N(C)C(=O)[C@H](CC(C)C)NC(=O)[C@H](C)N(C)C(=O)[C@H](OC(=O)[C@H](C(C)C)N(C)C)C(C)C)C(=O)N(C)[C@@H](C)C(=O)N1C` (NMe2Val-[dHiv][NMeA]L[NMeLys(Me)][NMeA][NMeI]A[NMeL]Y(Me); lactam 4-C), the half-maximal inhibitory concentration (IC50) was found to be 3.4 µM.

Take `CC[C@H](C)[C@@H]1NC(=O)[C@H](C)N(C)C(=O)[C@@H](N(C)C(=O)[C@H](CC(C)C)N(C)C(=O)[C@H](C)N(C)C(=O)[C@H](OC(=O)[C@H](C(C)C)N(C)C)C(C)C)CCCCN(C)C(=O)[C@H](Cc2ccc(OC)cc2)NC(=O)[C@H](CC(C)C)N(C)C(=O)[C@H](C)NC1=O` (NMe2Val-[dHiv][NMeA][NMeL][NMeLys(Me)][NMeA]IA[NMeL]Y(Me); lactam 4-C): the IC50 was greater than 10 µM.

Take `CC[C@H](C)[C@H]1C(=O)N[C@@H](C)C(=O)N(C)[C@@H](CC(C)C)C(=O)N[C@@H](Cc2ccccn2)C(=O)N(C)CCCC[C@H](N(C)C(=O)[C@H](CC(C)C)N(C)C(=O)[C@H](C)N(C)C(=O)[C@H](OC(=O)[C@H](C(C)C)N(C)C)C(C)C)C(=O)N(C)[C@@H](C)C(=O)N1C` (NMe2Val-[dHiv][NMeA][NMeL][NMeLys(Me)][NMeA][NMeI]A[NMeL][2Pal]; lactam 4-C): the IC50 was greater than 10 µM.

For the compound `CC[C@H](C)[C@H]1C(=O)N[C@@H](C)C(=O)N(C)[C@@H](CC(C)C)C(=O)N[C@@H](Cc2cccnc2)C(=O)N(C)CCCC[C@H](N(C)C(=O)[C@H](CC(C)C)N(C)C(=O)[C@H](C)N(C)C(=O)[C@H](OC(=O)[C@H](C(C)C)N(C)C)C(C)C)C(=O)N(C)[C@@H](C)C(=O)N1C` (NMe2Val-[dHiv][NMeA][NMeL][NMeLys(Me)][NMeA][NMeI]A[NMeL][3Pal]; lactam 4-C), the half-maximal inhibitory concentration (IC50) is greater than 10 µM.

As for `CC[C@H](C)[C@H]1C(=O)N[C@@H](C)C(=O)N(C)[C@@H](CC(C)C)C(=O)N[C@@H](Cc2ccncc2)C(=O)N(C)CCCC[C@H](N(C)C(=O)[C@H](CC(C)C)N(C)C(=O)[C@H](C)N(C)C(=O)[C@H](OC(=O)[C@H](C(C)C)N(C)C)C(C)C)C(=O)N(C)[C@@H](C)C(=O)N1C` (NMe2Val-[dHiv][NMeA][NMeL][NMeLys(Me)][NMeA][NMeI]A[NMeL][4Pal]; lactam 4-C), the IC50 is greater than 10 µM.

`CC[C@H](C)[C@H]1C(=O)N[C@@H](C)C(=O)N(C)[C@@H](CC(C)C)C(=O)N[C@H](Cc2ccc(OC)cc2)C(=O)N(C)CCCC[C@H](N(C)C(=O)[C@H](CC(C)C)N(C)C(=O)[C@H](C)N(C)C(=O)[C@H](OC(=O)[C@H](C(C)C)N(C)C)C(C)C)C(=O)N(C)[C@@H](C)C(=O)N1C` (NMe2Val-[dHiv][NMeA][NMeL][NMeLys(Me)][NMeA][NMeI]A[NMeL][dY](Me); lactam 4-C): the IC50 was greater than 10 µM.

As to `CC[C@H](C)[C@H]1C(=O)N[C@H](C)C(=O)N(C)[C@@H](CC(C)C)C(=O)N[C@@H](Cc2ccc(OC)cc2)C(=O)N(C)CCCC[C@H](N(C)C(=O)[C@H](CC(C)C)N(C)C(=O)[C@H](C)N(C)C(=O)[C@H](OC(=O)[C@H](C(C)C)N(C)C)C(C)C)C(=O)N(C)[C@@H](C)C(=O)N1C` (NMe2Val-[dHiv][NMeA][NMeL][NMeLys(Me)][NMeA][NMeI][dA][NMeL]Y(Me); lactam 4-C), the IC50 is greater than 10 µM.

For `CC[C@H](C)[C@@H]1C(=O)N[C@@H](C)C(=O)N(C)[C@@H](CC(C)C)C(=O)N[C@@H](Cc2ccc(OC)cc2)C(=O)N(C)CCCC[C@H](N(C)C(=O)[C@H](CC(C)C)N(C)C(=O)[C@H](C)N(C)C(=O)[C@H](OC(=O)[C@H](C(C)C)N(C)C)C(C)C)C(=O)N(C)[C@@H](C)C(=O)N1C` (NMe2Val-[dHiv][NMeA][NMeL][NMeLys(Me)][NMeA][dNMeaIle]A[NMeL]Y(Me); lactam 4-C), the IC50 is greater than 10 µM.

Consider `CC[C@H](C)[C@H]1C(=O)N[C@@H](C)C(=O)N(C)[C@@H](CC(C)C)C(=O)N[C@@H](Cc2ccc(OC)cc2)C(=O)N(C)CCCC[C@H](N(C)C(=O)[C@H](CC(C)C)N(C)C(=O)[C@H](C)N(C)C(=O)[C@H](OC(=O)[C@H](C(C)C)N(C)C)C(C)C)C(=O)N(C)[C@H](C)C(=O)N1C` (NMe2Val-[dHiv][NMeA][NMeL][NMeLys(Me)][dNMeA][NMeI]A[NMeL]Y(Me); lactam 4-C), for which the concentration for half-maximal inhibition (IC50) was greater than 10 µM.

Turning to `CC[C@H](C)[C@H]1C(=O)N[C@@H](C)C(=O)N(C)[C@@H](CC(C)C)C(=O)N[C@@H](Cc2ccc(OC)cc2)C(=O)NCCC[C@H](N(C)C(=O)[C@H](CC(C)C)N(C)C(=O)[C@H](C)N(C)C(=O)[C@H](OC(=O)[C@H](C(C)C)N(C)C)C(C)C)C(=O)N(C)[C@@H](C)C(=O)N1C` (NMe2Val-[dHiv][NMeA][NMeL][NMeOrn][NMeA][NMeI]A[NMeL]Y(Me); lactam 4-C), the IC50 is greater than 10 µM.

Consider `CC[C@H](C)[C@H]1C(=O)N[C@@H](C)C(=O)N(C)[C@@H](CC(C)C)C(=O)N[C@@H](Cc2ccc(OC)cc2)C(=O)NCCC[C@@H](N(C)C(=O)[C@H](CC(C)C)N(C)C(=O)[C@H](C)N(C)C(=O)[C@H](OC(=O)[C@H](C(C)C)N(C)C)C(C)C)C(=O)N(C)[C@@H](C)C(=O)N1C` (NMe2Val-[dHiv][NMeA][NMeL][dNMeOrn][NMeA][NMeI]A[NMeL]Y(Me); lactam 4-C), for which the 50% inhibitory concentration (IC50) was greater than 10 µM.

With `CC[C@H](C)[C@H]1C(=O)N[C@@H](C)C(=O)N(C)[C@@H](CC(C)C)C(=O)N[C@@H](Cc2ccc(-c3ccccc3)cc2)C(=O)N(C)[C@H](C)C(=O)O[C@H](C)[C@H](N(C)C(=O)[C@H](CC(C)C)N(C)C(=O)[C@H](COC)N(C)C(=O)[C@H](OC(=O)[C@H](C(C)C)N(C)C)C(C)C)C(=O)N(C)[C@@H](COC)C(=O)N1C` (NMe2Val-[dHiv][NMeS](Me)[NMeL][NMeT][NMeS](Me)[NMeI]A[NMeL][Bip][dNMeA]; ester 4-C), the half-inhibitory concentration (IC50) was 0.00011 µM.
